Active and inactive are the calls of the source. The calls are words filed in the database; no cut-off is given here.
Key:
[1] = target: T1, Peroxisome proliferator-activated receptor gamma (Homo sapiens, UniProt P37231); assay: Transactivation of human PPARgamma expressed in african green monkey CV1 cells by luciferase reporter gene assay; format: cell-based, CV-1
T1 sequence (P37231 whole entry): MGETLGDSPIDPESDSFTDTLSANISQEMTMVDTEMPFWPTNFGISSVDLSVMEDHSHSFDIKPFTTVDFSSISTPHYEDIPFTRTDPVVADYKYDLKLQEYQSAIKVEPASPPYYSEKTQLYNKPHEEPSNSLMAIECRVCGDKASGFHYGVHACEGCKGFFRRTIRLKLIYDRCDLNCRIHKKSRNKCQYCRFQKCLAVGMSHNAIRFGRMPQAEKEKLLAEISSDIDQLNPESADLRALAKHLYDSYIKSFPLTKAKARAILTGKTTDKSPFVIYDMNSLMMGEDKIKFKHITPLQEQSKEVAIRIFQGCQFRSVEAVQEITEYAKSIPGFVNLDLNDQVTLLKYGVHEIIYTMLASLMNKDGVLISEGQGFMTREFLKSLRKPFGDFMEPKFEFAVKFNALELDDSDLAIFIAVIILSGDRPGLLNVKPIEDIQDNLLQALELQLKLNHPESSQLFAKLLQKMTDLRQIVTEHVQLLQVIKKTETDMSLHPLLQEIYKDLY

[2] = target: T2, Peroxisome proliferator-activated receptor alpha (Homo sapiens, UniProt Q07869); assay: Binding affinity to GST-tagged human PPARalpha by TR-FRET analysis
T2 sequence (Q07869 whole entry): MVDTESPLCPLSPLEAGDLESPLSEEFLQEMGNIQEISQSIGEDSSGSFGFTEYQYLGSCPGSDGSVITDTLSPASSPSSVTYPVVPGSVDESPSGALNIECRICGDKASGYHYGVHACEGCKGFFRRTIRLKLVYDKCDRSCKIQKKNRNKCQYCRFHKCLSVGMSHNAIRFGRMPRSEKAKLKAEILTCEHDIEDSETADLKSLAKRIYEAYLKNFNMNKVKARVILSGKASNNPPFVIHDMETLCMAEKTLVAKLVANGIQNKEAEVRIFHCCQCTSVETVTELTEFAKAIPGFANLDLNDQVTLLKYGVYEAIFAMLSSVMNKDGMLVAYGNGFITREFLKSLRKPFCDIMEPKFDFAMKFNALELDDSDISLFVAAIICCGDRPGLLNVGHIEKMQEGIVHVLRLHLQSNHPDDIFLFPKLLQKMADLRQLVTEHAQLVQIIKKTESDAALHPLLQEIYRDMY

[3] = target: T1, Peroxisome proliferator-activated receptor gamma
[4] = target: T3, Peroxisome proliferator-activated receptor delta (Homo sapiens, UniProt Q03181); details: cv-1
T3 sequence (Q03181 whole entry): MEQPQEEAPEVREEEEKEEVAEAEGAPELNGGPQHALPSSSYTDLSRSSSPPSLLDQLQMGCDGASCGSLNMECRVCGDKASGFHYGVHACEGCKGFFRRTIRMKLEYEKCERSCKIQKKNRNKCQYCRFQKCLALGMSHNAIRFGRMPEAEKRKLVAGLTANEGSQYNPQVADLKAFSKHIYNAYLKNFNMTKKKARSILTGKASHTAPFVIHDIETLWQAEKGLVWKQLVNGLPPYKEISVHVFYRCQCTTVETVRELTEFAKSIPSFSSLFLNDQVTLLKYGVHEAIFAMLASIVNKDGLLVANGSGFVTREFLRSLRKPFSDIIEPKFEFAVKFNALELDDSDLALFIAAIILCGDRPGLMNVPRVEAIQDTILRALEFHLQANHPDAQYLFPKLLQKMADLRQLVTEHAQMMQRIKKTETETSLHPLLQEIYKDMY

[5] = target: T2, Peroxisome proliferator-activated receptor alpha; assay: Transactivation of human PPARalpha expressed in african green monkey CV1 cells by luciferase reporter gene assay; format: cell-based, CV-1
[6] = target: T4, Peroxisome proliferator-activated receptor alpha (Homo sapiens) (UniProt Q07869); assay: Transactivation of human PPARalpha expressed in african green monkey CV1 cells at 30 uM by luciferase reporter gene assay relative to Wy14643; format: cell-based; details: CV-1
T4 sequence (whole entry): T2 sequence (Q07869 whole entry)

[7] = target: T5, Peroxisome proliferator-activated receptor gamma (Homo sapiens) (UniProt P37231); assay: Transactivation of human PPARgamma expressed in african green monkey CV1 cells at 30 uM by luciferase reporter gene assay relative to […]; format: cell-based; details: CV-1
T5 sequence (whole entry): T1 sequence (P37231 whole entry)

HepG2 [8] = assay: Increase in ACS mRNA expression in human HepG2 cells at 10 uM; format: functional, cell-based
3T3-L1 [9] = assay: Induction of preadipocyte differentiation in mouse 3T3L1 cells assessed as […] in lipid droplet accumulation at 10 uM Oil Red O staining; format: functional, cell-based
[10] = target: T6, Peroxisome proliferator-activated receptor delta (Homo sapiens) (UniProt Q03181); details: CV-1, 30 uM
T6 sequence (whole entry): T3 sequence (Q03181 whole entry)

3T3-L1 [11] = assay: Induction of preadipocyte differentiation in mouse 3T3L1 cells assessed as increase in lipid droplet accumulation at 10 uM Oil Red O staining relative to control; format: functional, cell-based
HepG2 [12] = assay: Increase in CPT1 mRNA expression in human HepG2 cells at 10 uM; format: functional, cell-based

Row | SMILES | EC50 [1] | IC50 [2] | IC50 [3] | EC50 [4] | EC50 [5] | Emax [6] | Emax [7] | Activity (HepG2 [8]) | Activity (3T3-L1 [9]) | Emax [10] | Activity (3T3-L1 [11]) | Activity (HepG2 [12])
1 | CC(C)=CCC/C(C)=C/Cc1c(O)cc(/C=C/c2cc(F)cc(F)c2)cc1O | 7 µM | 2.08 µM | 0.9 µM | Not Active | – | – | – | – | – | – | – | –
2 | CC(C)=CCC/C(C)=C/Cc1c(O)cc(/C=C/c2ccoc2)cc1O | 5 µM | 2.03 µM | 0.65 µM | Not Active | 6 µM | 87% | 98% | Active | Active | 34% | – | –
3 | CC(C)=CCC/C(C)=C/Cc1c(O)cc(/C=C/c2ccccc2)cc1O [AMORPHASTILBOL] | 5 µM | 1.52 µM | 0.85 µM | Not Active | 12 µM | 66% | 83% | Active | – | – | Active | Active
4 | CC(C)=CCC/C(C)=C/Cc1c(O)cc(/C=C/c2ccc(C(F)(F)F)cc2)cc1O | – | 3.33 µM | 8.1 µM | Not Active | – | – | – | – | – | – | – | –
5 | COc1ccc(/C=C/c2cc(O)c(C/C=C(\C)CCC=C(C)C)c(O)c2)cc1 | 14 µM | 2.5 µM | 0.63 µM | Not Active | 19 µM | 63% | 66% | – | – | – | – | –
6 | CC(C)=CCC/C(C)=C/Cc1c(O)cc(/C=C/c2ccc(C=O)cc2)cc1O | – | 2.82 µM | 0.89 µM | Not Active | – | 35% | 27% | – | – | – | – | –
7 | CC(C)=CCC/C(C)=C/Cc1c(O)cc(/C=C/c2ccc(Cl)cc2)cc1O | – | 7.47 µM | 0.54 µM | Not Active | – | – | – | – | – | – | – | –
8 | CC(C)=CCC/C(C)=C/Cc1c(O)cc(/C=C/c2ccc(F)cc2)cc1O | 11 µM | 2.48 µM | 2.32 µM | Not Active | 6 µM | 88% | 68% | – | – | 17% | – | –
9 | CC(C)=CCC/C(C)=C/Cc1c(O)cc(/C=C/c2cccc(C(F)(F)F)c2)cc1O | 5 µM | 1.21 µM | 0.53 µM | Not Active | 4 µM | – | – | – | Active | – | – | Active
10 | CC(C)=CCC/C(C)=C/Cc1c(O)cc(/C=C/c2ccc(C#N)cc2)cc1O | – | 3.47 µM | 1.2 µM | Not Active | 20 µM | 54% | 41% | – | – | – | – | –
11 | CC(C)=CCC/C(C)=C/Cc1c(O)cc(/C=C/c2ccsc2)cc1O | 6 µM | 5.41 µM | 1.01 µM | Not Active | 14 µM | 56% | 68% | – | – | – | – | –
12 | CC(C)=CCC/C(C)=C/Cc1c(O)cc(/C=C/c2ccc(O)cc2)cc1O | 8 µM | 1.21 µM | 0.11 µM | Not Active | 8 µM | – | – | – | – | – | – | –
